Experimental data from US8314103B2, “Pyridyl derivatives, their preparation and use” (Piramal Enterprises Limited, priority 2007, dated 2012).

Tests used:
[1] = tested on: HIF overexpressing cell lines; assay: Anti-proliferative assay (3H-Thymidine incorporation); type: cell-based; conditions: Homo sapiens; average across a panel of HIF overexpressing cell lines; 48 hours; read-out: Anti Proliferative Potential (3H-Thymidine), average IC50
Procedure: The anti-proliferative potential of compounds of present invention across a panel of cancer cell lines as described herein above was determined using ^3H-Thymidine incorporation. […] Cells were seeded at a density of 3000-5000 cells per well in 180 μL volume in transparent 96 well tissue culture plate (NUNC, USA) and incubated for 12-18 hours at 37° C., 5% CO2. Subsequently, 20 μL of compounds of present invention (diluted in medium at concentrations ranging from 30 μM, 10 μM, 3 μM, 1 μM, 0.3 μM or 0.1 μM) were added to each well. Cells were then incubated for 48 hours at 37° C., 5% CO2 After the incubation, all the medium from the plates was aspirated and ^3H-Thymidine was added to all wells at a concentration of 0.25 μCi/well in 200 μL it complete medium (RPMI with 10% FBS). Plates were incubated at 37° C., 5% CO2 for further 6-14 hours. Following this incubation period, cells from 96 well plates were harvested with the help of cell harvester (Packard, USA) on a 96 well glass-filter plate (Unifilter-96, GF/B, Packard, USA). The filter plates were dried completely at 60° C. for 1 hour or overnight at room temperature. After drying, the bottom of the plates was sealed with bottom seals and 0.05 mL/well of scintillate fluid was added per well (Microscint-O, Packard). The plates were sealed from the top, read on Scintillation counter (TopCount, Packard) and percent inhibition and IC50 were calculated.

mTOR = target: T1, mTOR (Homo sapiens, UniProt P42345); assay: Cell based mTOR assay; conditions: IGF-I induced AKT/p70S6K1 phosphorylation; read-out: Inhibition of mTOR (cell-based): IC50
T1 construct: endogenous in cells
Procedure: The mTOR assay was designed as given in Biochem J., 2000, 350, 717-722 with modifications as described below.
Cells were seeded in a 96 well microtitre plate at a density of 50,000 cells/cm^2 in appropriate complete cell culture medium. The cells were allowed to adhere for 18-24 hours. The cells were pretreated (in triplicates) with the test compound at a concentration of 10 μM for 30 minutes followed by induction with 400 ng/ml IGF-I for 24 hours (to induce AKT and p70S6K1 phosphorylation). A typical assay would consist of a set of unstimulated well, a set of stimulated and a set each of wells treated with compound and the stimulator. The medium was discarded. The cells were fixed with 100 μl of 3.7% formaldehyde for 15 minutes. The formaldehyde was discarded by inverting the plate and tapping it on a thick tissue paper layer to remove traces. The cells were washed and permeabilized with 200 μL PBS-Triton solution (containing 0.1% triton-X 100 in 1× PBS) three times, incubating the cells each time for 5 minutes. 100 μL blocking solution (10% FCS in PBS-Triton) was added and incubated for 1 hour at room temperature. The blocking solution was discarded and cells were incubated with the primary antibody in PBS-Triton at a dilution of 1:500 for 1 hour at room temperature. [The primary antibody is Phospho-AKT (Ser 473); Cell Signaling; Cat. No. 9271; Phospho p70S6K1 (Thr 389), Cell Signaling, Cat. No. 9205]. The primary antibody solution was discarded and the cells were washed 3 times with PBS-Triton solution and incubated with the HRP-conjugated secondary antibody in PBS-Triton at a dilution of 1:500 for 1 hour at room temperature. The cells were washed 3 times with PBS-Triton followed by two washes with PBS (to remove traces of triton-X 100). The OPD (o-phenylene diamine dihydrochloride) substrate was prepared for detection of the signal by dissolving one tablet set (two tablets) of SigmaFast OPD (Sigma, Cat No. P9187) in 20 mL distilled water, and was protected from light. 100 μL OPD solution was added to the wells and the plate was incubated in the dark for 3-5 minutes (depending upon the development of the colour). The reaction was stopped by adding 50 μL 2 N sulphuric acid (H2SO4). The absorbance was measured at 490 nm. The values were expressed in the treated samples, in terms of percentage or fold decrease in AKT/p70 phosphorylation with respect to the induced sample.

HIF-1α = HIF-1α assay (luciferase reporter gene, U251 HRE / U251 pGL3 cells); type: cell-based, human; conditions: SI greater than 4 indicates specificity towards HIF-1α inhibition under hypoxia conditions
Cytotoxicity assay (MTS) = type: cell-based; conditions: human, panel of HIF over expressing cell lines, average across a panel of HIF overexpressing cell lines, read-out: Cytotoxic Potential (MTS/PI), average IC50
Procedure: Cytotoxicity and Anti-proliferative Assay
Cytotoxic potential of compounds of the present invention was tested using various HIF over expressing cell lines (source and culture conditions as described in Table-1 herein above). Cells were seeded at a density of 3000-5000 cells per well in 180 μL volume in transparent 96 well tissue culture plate (NUNC, USA) and incubated for 12-18 hours at 37° C., 5% CO2. Subsequently, 20 μL of compounds of present invention (diluted in medium at concentrations ranging from 30 μM, 10 μM, 3 μM, 1 μM, 0.3 μM or 0.1 μM) were added to each well. Cells were then incubated for 48 hours at 37° C., 5% CO2. Following the incubation, 20 μL of MTS solution with PMS (Promega) was added in each well. After 4 hours incubation, the absorbance of the fluid in each well was determined at 490 nm using a microwell plate spectrophotometer reader (Molecular Devices, Sunnyvale, Calif., USA). In every experiment, each condition was run in triplicate wells.

PI3Kα kinase = PI3Kα kinase (Homo sapiens, UniProt P42336); assay: PI3Kα kinase assay; type: biochemical; conditions: 10 μM ATP; read-out: Inhibition of PI3Kα (kinase): IC50
Sequence of PI3Kα kinase (P42336 whole entry): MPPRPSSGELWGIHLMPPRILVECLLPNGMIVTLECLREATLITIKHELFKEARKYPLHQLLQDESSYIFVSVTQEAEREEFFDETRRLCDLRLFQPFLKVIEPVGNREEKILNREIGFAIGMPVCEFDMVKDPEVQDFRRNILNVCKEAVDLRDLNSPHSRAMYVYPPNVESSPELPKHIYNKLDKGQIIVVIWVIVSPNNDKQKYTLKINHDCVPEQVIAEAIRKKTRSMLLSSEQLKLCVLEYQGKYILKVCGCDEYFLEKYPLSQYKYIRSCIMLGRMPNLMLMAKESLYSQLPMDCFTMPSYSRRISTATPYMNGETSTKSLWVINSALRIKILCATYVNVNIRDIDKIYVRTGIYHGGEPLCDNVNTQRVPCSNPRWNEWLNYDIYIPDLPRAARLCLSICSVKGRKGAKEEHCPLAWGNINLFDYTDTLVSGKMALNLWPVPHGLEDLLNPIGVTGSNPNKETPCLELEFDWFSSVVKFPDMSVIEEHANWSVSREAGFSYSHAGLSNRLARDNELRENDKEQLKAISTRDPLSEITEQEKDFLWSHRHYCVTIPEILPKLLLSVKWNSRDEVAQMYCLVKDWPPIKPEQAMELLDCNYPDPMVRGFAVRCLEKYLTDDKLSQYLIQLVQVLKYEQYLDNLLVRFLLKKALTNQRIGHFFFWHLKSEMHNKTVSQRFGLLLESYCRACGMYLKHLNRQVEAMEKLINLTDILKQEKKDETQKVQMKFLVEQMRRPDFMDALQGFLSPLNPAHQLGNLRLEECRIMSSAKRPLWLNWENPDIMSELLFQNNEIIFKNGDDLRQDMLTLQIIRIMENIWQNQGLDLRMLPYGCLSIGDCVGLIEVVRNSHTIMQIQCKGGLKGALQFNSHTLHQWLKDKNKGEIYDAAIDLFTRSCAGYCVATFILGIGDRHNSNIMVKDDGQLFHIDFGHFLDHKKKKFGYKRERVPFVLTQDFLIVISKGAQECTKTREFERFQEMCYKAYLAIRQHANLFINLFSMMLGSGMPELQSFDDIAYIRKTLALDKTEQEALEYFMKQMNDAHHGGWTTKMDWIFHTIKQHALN
Sequence of PI3Kα kinase (P27986 whole entry partner): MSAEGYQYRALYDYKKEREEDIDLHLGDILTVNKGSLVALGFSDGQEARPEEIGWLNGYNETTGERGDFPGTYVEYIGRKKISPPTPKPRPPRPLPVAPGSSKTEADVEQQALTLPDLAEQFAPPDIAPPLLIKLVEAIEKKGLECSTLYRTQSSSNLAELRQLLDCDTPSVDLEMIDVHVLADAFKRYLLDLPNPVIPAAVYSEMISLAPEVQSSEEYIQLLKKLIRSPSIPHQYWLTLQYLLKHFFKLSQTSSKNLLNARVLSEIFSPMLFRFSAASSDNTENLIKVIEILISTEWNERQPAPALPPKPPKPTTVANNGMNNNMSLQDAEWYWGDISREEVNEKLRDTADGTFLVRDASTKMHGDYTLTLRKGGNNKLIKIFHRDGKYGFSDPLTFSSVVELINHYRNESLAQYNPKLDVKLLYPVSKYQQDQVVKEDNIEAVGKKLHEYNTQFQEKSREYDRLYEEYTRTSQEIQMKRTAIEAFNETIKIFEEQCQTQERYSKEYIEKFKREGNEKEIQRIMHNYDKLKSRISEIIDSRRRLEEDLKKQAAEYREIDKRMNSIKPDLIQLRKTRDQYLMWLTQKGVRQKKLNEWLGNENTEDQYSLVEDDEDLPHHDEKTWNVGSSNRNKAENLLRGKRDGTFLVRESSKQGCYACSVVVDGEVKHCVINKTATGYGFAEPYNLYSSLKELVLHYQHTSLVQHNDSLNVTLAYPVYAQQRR
Procedure: The PI3K kinase assay was designed as given in Cell, 2006, 125, 733-747.
The kinase reaction was carried out in a 25 μL reaction in a 1.5 ml microcentrifuge tube. The reaction mixture consisted of kinase buffer (10 mM Hepes, pH 7.5, 50 mM MgCl2), 20 ng PI3Kα kinase, 12.5 μg phosphotidylinositol (PI), 10 μM adenosine triphosphate (ATP) and 1 μCi 32γP […]. The compounds of the present invention were added at appropriate concentrations. The reactions were incubated at 30° C. for 20 minutes and were stopped by adding 1:1 mixture of methanol and chloroform. The tube contents were mixed on a vortex mixer and centrifuged at 10000 rpm for 2 minutes. 10 μL of the organic (lower) phase was spotted on to a thin layer chromatography (TLC) plate. The spots were resolved in a mobile phase consisting of a 65:35 mixture of n-propanol and 2 M glacial acetic acid. The plates were dried and exposed to an X-ray film. The bands appearing as a result of 32 g P incorporation in PI were quantitated using the QuantityOne (BioRad) densitometry program.

| IC50 (mTOR) | IC50 (PI3Kα kinase) | Compound | IC50 [1] | Specificity Index (HIF-1α) | IC50 at 48 h (Cytotoxicity assay (MTS)) |
| --- | --- | --- | --- | --- | --- |
| 5000 nM | – | NC(=NO)c1ccc(NC(=O)CCl)cn1 [Example 4, 2-Chloro-N-(6-(N′-hydroxycarbamimidoyl)pyridin-3-yl)acetamide] | 2000 ± 500 nM | >20 | 2200 ± 300 nM |
| 5000 nM | 1500 nM | C=CCOc1cc(C(F)(F)F)nc(-c2ccc(NC(=O)CCl)cn2)n1 [Example 60, N-(6-(4-(allyloxy)-6-(trifluoromethyl)pyrimidin-2-yl)pyridin-3yl-)-2-chloroacetamide] | 800 ± 200 nM | >15 | 2000 ± 200 nM |
| – | – | O=C(CCl)Nc1ccc(-c2noc(C(F)(F)Cl)n2)nc1 [Example 41a, 2-Chloro-N-[6-(5-(chlorodifluoromethyl)-1,2,4-oxadiazol-3-yl)pyridin-3-yl]acetamide] | – | >10 | 3500 ± 1000 nM |
| 5000 nM | < 1000 nM | C=CCOc1nc(-c2ccc(NC(=O)CCl)cn2)nc(C)c1CC [Example 64, N-(6-(4-(allyloxy)-5-ethyl-6-methylpyrimidin-2-yl)pyridin-3yl)-2-chloroacetamide] | 1000 ± 200 nM | – | 1500 ± 200 nM |
| 5000 nM | 1000 nM | COc1cc(C(F)(F)F)nc(-c2ccc(NC(=O)CCl)cn2)n1 [Example 61, 2-Chloro-N-(6-(4-methoxy-6-(trifluoromethyl)pyrimidin-2-yl)pyridin-3yl)acetamide] | – | – | 3000 ± 200 nM |
| – | – | O=C(CCl)Nc1ccc(-c2nc(Cl)cc(C(F)(F)F)n2)nc1 [Example 71, 2-Chloro-N-(6-(4-chloro-6-(trifluoromethyl)pyrimidin-2-yl)pyridin-3-yl)acetamide] | 800 ± 200 nM | >6 | 1000 ± 200 nM |
| – | – | Cc1nc(-c2ccc(NC(=O)CCl)cn2)no1 [Example 30, 2-Chloro-N-[6-(5-methyl-1,2,4-oxadiazol-3-yl)pyridin-3-yl]acetamide] | 1500 ± 200 nM | >11 | 3000 ± 500 nM |
| – | – | O=C(CCl)Nc1ccc(-c2noc(C(F)(F)F)n2)nc1 [Example 29, 2-Chloro-N-[6-(5-(trifluoromethyl)-1,2,4-oxadiazol-3-yl)pyridin-3-yl]acetamide] | 1500 ± 400 nM | >9 | 3500 ± 500 nM |
| – | – | O=C(CCl)Nc1ccc(-c2nc(O)cc(C(F)(F)F)n2)nc1 [Example 53, 2-Chloro-N-(6-(4-hydroxy-6-(trifluoromethyl)pyrimidin-2-yl)pyridin-3-yl)acetamide] | 2000 ± 300 nM | >7 | 2000 ± 500 nM |
